Source: patent publication US20230167073A1 (Teijin Pharma Limited, priority 2020, published 2023)

What follows are compounds tested against T1, Human TRPC6 (Homo sapiens, UniProt Q9Y210) (assay: Evaluation of TRPC6 channel inhibitory activity (1), FLIPR Calcium 5 Assay Kit, OAG stimulation (Compound Nos. 1-1293)). Conditions: Human TRPC6 stably-expressing cells, OAG 30 μM, FLIPR Calcium 5 Assay Kit; read-out: Inhibitory activity (pIC50 class) (converted).
T1 construct: expressed in transfected cells
T1 sequence (Q9Y210 1-931): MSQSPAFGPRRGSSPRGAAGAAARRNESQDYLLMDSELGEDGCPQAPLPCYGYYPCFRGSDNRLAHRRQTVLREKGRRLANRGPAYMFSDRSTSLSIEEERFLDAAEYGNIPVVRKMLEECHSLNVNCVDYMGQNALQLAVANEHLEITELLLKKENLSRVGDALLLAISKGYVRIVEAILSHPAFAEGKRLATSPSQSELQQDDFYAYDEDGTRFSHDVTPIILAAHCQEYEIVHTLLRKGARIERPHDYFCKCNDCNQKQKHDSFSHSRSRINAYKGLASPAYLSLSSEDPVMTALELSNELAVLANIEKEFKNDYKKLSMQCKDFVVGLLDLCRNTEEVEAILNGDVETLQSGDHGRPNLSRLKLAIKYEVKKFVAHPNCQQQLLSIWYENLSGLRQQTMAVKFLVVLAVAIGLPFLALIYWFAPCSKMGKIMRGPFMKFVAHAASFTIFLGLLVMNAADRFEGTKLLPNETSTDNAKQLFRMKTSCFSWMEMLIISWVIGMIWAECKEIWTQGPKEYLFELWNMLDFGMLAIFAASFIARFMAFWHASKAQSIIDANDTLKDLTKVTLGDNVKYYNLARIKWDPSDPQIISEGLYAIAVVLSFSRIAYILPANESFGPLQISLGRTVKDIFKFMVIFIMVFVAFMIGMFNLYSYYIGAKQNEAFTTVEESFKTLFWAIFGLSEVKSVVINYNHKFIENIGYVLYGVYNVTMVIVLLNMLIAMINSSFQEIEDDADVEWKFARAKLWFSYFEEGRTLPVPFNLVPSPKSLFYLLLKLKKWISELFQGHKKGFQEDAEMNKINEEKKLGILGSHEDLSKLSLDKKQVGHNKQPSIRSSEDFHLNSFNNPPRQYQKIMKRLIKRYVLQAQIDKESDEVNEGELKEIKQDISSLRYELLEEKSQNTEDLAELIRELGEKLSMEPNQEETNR
Format: cell-based
Procedure, shortened: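 TRPC6 (human) stable cells, 24 h culture; Ca5 no-wash dye + probenecid 30 min; cpd 20 min; OAG 30 μM final; ΔF (pre-cpd min to post-OAG max); 0%/100% = no cpd / no cpd + no OAG; 4PL → pIC50, binned +/++/+++.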
Cc1nc(N2CCOCC2)sc1C(=O)c1cc(C#N)ccc1-c1ccc(CCN)cc1 [compound 1059, 4-[4-(2-aminoethyl)phenyl]-3-(4-methyl-2-morpholin-4-yl-1,3-thiazole-5-carbonyl)benzonitrile] was tested, and the IC50 was less than 10 nM. With CC(C)Cn1cc(C(=O)c2cc(C#N)ccc2-c2ncc(CCN)cn2)cn1 [compound 1060, 4-[5-(2-aminoethyl)pyrimidin-2-yl]-3-[1-(2-methylpropyl)pyrazole-4-carbonyl]benzonitrile] the IC50 was less than 10 nM. With CCN(CC)c1cc(C(=O)c2cc(C#N)ccc2-c2ncc(CN)cn2)n(C)n1 [compound 1061, 4-[5-(aminomethyl)pyrimidin-2-yl]-3-[5-(diethylamino)-2-methylpyrazole-3-carbonyl]benzonitrile] the IC50 was less than 10 nM. With Cn1nc(N2CCCCC2)cc1C(=O)c1cc(C#N)ccc1-c1ncc(CCN)cn1 [compound 1062, 4-[5-(2-aminoethyl)pyrimidin-2-yl]-3-(2-methyl-5-piperidin-1-ylpyrazole-3-carbonyl)benzonitrile] the IC50 was less than 10 nM. With Cn1nc(N2CCCCC2)cc1C(=O)c1cc(C#N)ccc1-c1ncc(CN)cn1 [compound 1063, 4-[5-(aminomethyl)pyrimidin-2-yl]-3-(2-methyl-5-piperidin-1-ylpyrazole-3-carbonyl)benzonitrile] the IC50 was less than 10 nM. For Cc1nc(N2CCOCC2)sc1C(=O)c1cc(C#N)ccc1-c1ncc(CCN)cn1 [compound 1065, 4-[5-(2-aminoethyl)pyrimidin-2-yl]-3-(4-methyl-2-morpholin-4-yl-1,3-thiazole-5-carbonyl)benzonitrile], the IC50 was less than 10 nM. Compound Cc1nc(N2CCOCC2)sc1C(=O)c1cc(C#N)ccc1-c1ccc(CN)cn1 [compound 1066, 4-[5-(aminomethyl)pyridin-2-yl]-3-(4-methyl-2-morpholin-4-yl-1,3-thiazole-5-carbonyl)benzonitrile] has an IC50 of less than 10 nM. In the case of Cc1sc(N2CCOCC2)nc1C(=O)c1cc(C#N)ccc1-c1ccc(CN)cn1 [compound 1067, 4-[5-(aminomethyl)pyridin-2-yl]-3-(5-methyl-2-morpholin-4-yl-1,3-thiazole-4-carbonyl)benzonitrile], the IC50 is reported as greater than 1000 nM. Cc1sc(N2CCOCC2)nc1C(=O)c1cc(C#N)ccc1-c1ccc(CCN)cn1 [compound 1068, 4-[5-(2-aminoethyl)pyridin-2-yl]-3-(5-methyl-2-morpholin-4-yl-1,3-thiazole-4-carbonyl)benzonitrile] was tested, and the IC50 was 10 to 1000 nM. Compound Cc1sc(N2CCOCC2)nc1C(=O)c1cc(C#N)ccc1-c1ncc(CN)cn1 [compound 1069, 4-[5-(aminomethyl)pyrimidin-2-yl]-3-(5-methyl-2-morpholin-4-yl-1,3-thiazole-4-carbonyl)benzonitrile] has an IC50 greater than 1000 nM. Work on Cc1sc(N2CCOCC2)nc1C(=O)c1cc(C#N)ccc1-c1ncc(CCN)cn1 [compound 1070, 4-[5-(2-aminoethyl)pyrimidin-2-yl]-3-(5-methyl-2-morpholin-4-yl-1,3-thiazole-4-carbonyl)benzonitrile] yielded an IC50 greater than 1000 nM. With Cn1nc(N2CCCC2)cc1C(=O)c1cc(C#N)ccc1-c1ncc(CCN)cn1 [compound 1071, 4-[5-(2-aminoethyl)pyrimidin-2-yl]-3-(2-methyl-5-pyrrolidin-1-ylpyrazole-3-carbonyl)benzonitrile] the IC50 was less than 10 nM. Cn1nc(N2CCCC2)cc1C(=O)c1cc(C#N)ccc1-c1ncc(CN)cn1 [compound 1072, 4-[5-(aminomethyl)pyrimidin-2-yl]-3-(2-methyl-5-pyrrolidin-1-ylpyrazole-3-carbonyl)benzonitrile] showed an IC50 of less than 10 nM. CCN(CC(F)F)c1cc(C(=O)c2cc(C#N)ccc2-c2ncc(CCN)cn2)n(C)n1 [compound 1073, 4-[5-(2-aminoethyl)pyrimidin-2-yl]-3-[5-[2,2-difluoroethyl(ethyl)amino]-2-methylpyrazole-3-carbonyl]benzonitrile] gave an IC50 of less than 10 nM. In the case of CCN(CC(F)F)c1cc(C(=O)c2cc(C#N)ccc2-c2ncc(CN)cn2)n(C)n1 [compound 1074, 4-[5-(aminomethyl)pyrimidin-2-yl]-3-[5-[2,2-difluoroethyl(ethyl)amino]-2-methylpyrazole-3-carbonyl]benzonitrile], the IC50 is reported as less than 10 nM. Compound CNc1cc(C(=O)c2cc(C#N)ccc2-c2ccc(CCN)cn2)n(C)n1 [compound 1075, 4-[5-(2-aminoethyl)pyridin-2-yl]-3-[2-methyl-5-(methylamino)pyrazole-3-carbonyl]benzonitrile] has an IC50 of less than 10 nM. Cc1nc(N2CCOCC2)sc1C(=O)c1cc(C#N)ccc1-c1ccc(CCN)cn1 [compound 1076, 4-[5-(2-aminoethyl)pyridin-2-yl]-3-(4-methyl-2-morpholin-4-yl-1,3-thiazole-5-carbonyl)benzonitrile] showed an IC50 of less than 10 nM. Compound N#Cc1ccc(-c2ccc(CCN)cn2)c(C(=O)c2sc(N3CCOCC3)nc2C(F)(F)F)c1 [compound 1077, 4-[5-(2-aminoethyl)pyridin-2-yl]-3-[2-morpholin-4-yl-4-(trifluoromethyl)-1,3-thiazole-5-carbonyl]benzonitrile] has an IC50 of less than 10 nM. In the case of N#Cc1ccc(-c2ncc(CCN)cn2)c(C(=O)c2sc(N3CCOCC3)nc2C(F)(F)F)c1 [compound 1078, 4-[5-(2-aminoethyl)pyrimidin-2-yl]-3-[2-morpholin-4-yl-4-(trifluoromethyl)-1,3-thiazole-5-carbonyl]benzonitrile], the IC50 is reported as less than 10 nM. Compound N#Cc1ccc(-c2ccc(CCN)cc2)c(C(=O)c2cnnc(N3CCOCC3)c2)c1 [compound 1079, 4-[4-(2-aminoethyl)phenyl]-3-(6-morpholin-4-ylpyridazine-4-carbonyl)benzonitrile] has an IC50 of less than 10 nM. Work on N#Cc1ccc(-c2ccc(CN)cn2)c(C(=O)c2sc(N3CCOCC3)nc2C(F)(F)F)c1 [compound 1080, 4-[5-(aminomethyl)pyridin-2-yl]-3-[2-morpholin-4-yl-4-(trifluoromethyl)-1,3-thiazole-5-carbonyl]benzonitrile] yielded an IC50 of less than 10 nM. With N#Cc1ccc(-c2ccc(CCN)cc2)c(C(=O)c2cnc(N3CCOCC3)o2)c1 [compound 1081, 4-[4-(2-aminoethyl)phenyl]-3-(2-morpholin-4-yl-1,3-oxazole-5-carbonyl)benzonitrile] the IC50 was 10 to 1000 nM. N#Cc1ccc(-c2ncc(CN)cn2)c(C(=O)c2cnc(N3CCOCC3)o2)c1 [compound 1082, 4-[5-(aminomethyl)pyrimidin-2-yl]-3-(2-morpholin-4-yl-1,3-oxazole-5-carbonyl)benzonitrile] was tested, and the IC50 was greater than 1000 nM. In the case of N#Cc1ccc(-c2ccc(CCN)cn2)c(C(=O)c2cnc(N3CCOCC3)o2)c1 [compound 1083, 4-[5-(2-aminoethyl)pyridin-2-yl]-3-(2-morpholin-4-yl-1,3-oxazole-5-carbonyl)benzonitrile], the IC50 is reported as 10 to 1000 nM. N#Cc1ccc(-c2ncc(CCN)cn2)c(C(=O)c2cnc(N3CCOCC3)o2)c1 [compound 1084, 4-[5-(2-aminoethyl)pyrimidin-2-yl]-3-(2-morpholin-4-yl-1,3-oxazole-5-carbonyl)benzonitrile] showed an IC50 of 10 to 1000 nM. In the case of N#Cc1ccc(-c2ccc(CN)cn2)c(C(=O)c2cnc(N3CCOCC3)o2)c1 [compound 1085, 4-[5-(aminomethyl)pyridin-2-yl]-3-(2-morpholin-4-yl-1,3-oxazole-5-carbonyl)benzonitrile], the IC50 is reported as 10 to 1000 nM. For N#Cc1ccc(-c2ccc(CCN)cc2)c(C(=O)c2nnc(N3CCOCC3)o2)c1 [compound 1086, 4-[4-(2-aminoethyl)phenyl]-3-(5-morpholin-4-yl-1,3,4-oxadiazole-2-carbonyl)benzonitrile], the IC50 was less than 10 nM. N#Cc1ccc(-c2ncc(CN)cn2)c(C(=O)c2sc(N3CCOCC3)nc2C(F)(F)F)c1 [compound 1087, 4-[5-(aminomethyl)pyrimidin-2-yl]-3-[2-morpholin-4-yl-4-(trifluoromethyl)-1,3-thiazole-5-carbonyl]benzonitrile] was tested, and the IC50 was less than 10 nM. With N#Cc1ccc(-c2ccc(CCN)cc2)c(C(=O)c2nnc(N3CCOCC3)s2)c1 [compound 1088, 4-[4-(2-aminoethyl)phenyl]-3-(5-morpholin-4-yl-1,3,4-thiadiazole-2-carbonyl)benzonitrile] the IC50 was 10 to 1000 nM. In the case of N#Cc1ccc(-c2ccc(CN)cn2)c(C(=O)c2nnc(N3CCOCC3)o2)c1 [compound 1089, 4-[5-(aminomethyl)pyridin-2-yl]-3-(5-morpholin-4-yl-1,3,4-oxadiazole-2-carbonyl)benzonitrile], the IC50 is reported as 10 to 1000 nM. With N#Cc1ccc(-c2ncc(CN)cn2)c(C(=O)c2nnc(N3CCOCC3)o2)c1 [compound 1090, 4-[5-(aminomethyl)pyrimidin-2-yl]-3-(5-morpholin-4-yl-1,3,4-oxadiazole-2-carbonyl)benzonitrile] the IC50 was greater than 1000 nM.
